In patent EP0292365A2, “4-Amino-5,8-quinazolindione derivatives, process for their preparation and pharmaceutical compositions containing them” (CENTRE NATIONAL DE LA RECHERCHE SCIENTIFIQUE, priority 1987, dated 1988):
Where two headings read alike, the source gives them in different places.

What was measured:
[1] = tested on: cellules L1210; details: J. Med. Chem. 1983, 26, pp. 1715-1719; cited from earlier work
[2] = tested on: leucémie murine P388; details: J. Med. Chem. 1983, 26, pp. 1715-1719; cited from earlier work
[3] = tested on: leucémie L1210; details: J. Med. Chem. 1983, 26, pp. 1715-1719; cited from earlier work
[4] = tested on: sarcome 180; details: J. Med. Chem. 1983, 26, pp. 1715-1719; cited from earlier work
[5] = tested on: mélanocarcinome B16; details: J. Med. Chem. 1983, 26, pp. 1715-1719; cited from earlier work
[6] = J. Med. Chem. 1983, 26, pp. 1715-1719; cited from earlier work
[7] = tested on: cellules leucémiques L 1210; test: In vitro cytotoxicity: growth inhibition of L 1210 leukemia cells (Coulter count); format: cell-based, souris; details: Mus musculus, L1210, 48 h, read-out: CI50 après 48 h de culture
Method: La détermination de la cytotoxicité in vitro sur les cellules leucémiques L 1210 est la méthode utilisée pour sélectionner les molécules potentiellement antitumorales. Le protocole mis en oeuvre est le suivant :
les cellules leucématiques L 1210 adaptées à la culture en suspension stationnaire sont entretenues dans du milieu RPMI 1640 (commercialisé par Seromed) additionné de 20 % de sérum de cheval décomplémenté, L-glutamine (2 mM), pénicilline (200 U/ml), streptomycine (50µg/ml) et cultivées à 37° C dans une atmosphère à 5 % de C02. Les cultures testées par la méthode de BARILE (BARILE M.F. Mycoplasmal contamination of cell culture, in Contamination in Tissue Culture, J. Fogh (ed.) Acad. Press, 132-156, 1973) sont exemptes de contaminations bactériennes et mycoplasmiques.
Pour les expérimentations, les cellules sont ensemencées à la concentration de 0,8.10^5 cellules/ml et cultivées par 2 ml dans des flacons de 15 ml. Les substances à étudier sont dissoutes dans du DMSO (1 % final) dont on a préalablement vérifié l'innocuité. Des quantités croissantes de produit à tester sont ajoutées au temps 0 et des numérations sont faites au compteur COULTER après 24 et 48 heures de culture. Des séries de contrôle sont effectuées avec des quantités de DMSO équivalentes à celles des séries traitées.
Le temps de doublement des cellules témoins est approximativement de 12 heures.
La cytotoxicité est déterminée d'après l'inhibition de croissance des cellules L 1210, calculée par rapport aux témoins correspondants selon la formule : [formula] • T = concentration de cellules non traitées, • t = concentration de cellules traitées.
La concentration de produit qui diminue la croissance cellulaire de 50 % (Clso) est calculée d'après la méthode des régressions linéaires en coordonnées log-probit.
Lorsque la Cl50 est voisine de la micromolarité (égale ou inférieure à 1 µM), il existe une présomption d'activité antitumorale et les essais in vivo indiqués ci-après sont effectués.
A titre d'exemple, la CI50 mesurée 48 heures après traitement des cellules par les composés de l'invention testés est la suivante : […]

[8] = Determination of toxicity (DLo), single intraperitoneal dose; format: in vivo; details: voie intrapéritonéale, dose unique, souris Swiss, suivies pendant un mois
Excerpt: Ils sont tous administrés, par voie intrapéritonéale (ip), à des souris Swiss de 22 ± 2 g, à doses uniques exprimées en mg/kg de poids corporel. Les animaux sont suivis pendant un mois. La mortalité et les signes de toxicité sont relevés. On détermine ainsi la DLoqui sera la dose maximale utilisée pour la détermination de l'activité antitumorale.

[9] = tested on: Leucémie P388; format: in vivo, souris DBA/2; details: for Animaux survivants/ animaux traités / T/C / ΔP (J5-J1): P388, greffe ip (10^6 cel), ip J1, suspension dans le Klucel; for activité antitumorale comparée: compared with the quinazolinedione of J. Med. Chem. 1983, 26, 1715-1719
Excerpt: Afin de tester l'activité antitumorale des composés décrits plus haut, on a utilisé les leucémies murines P388 et L1210, ainsi que le mélanome murin B16. La leucémie P388 est considère comme très sensible et permet une première sélection. D'autre part, une substance ayant une grande activité sur la leucémie L1210 a une grande chance d'être active en clinique humaine (J.M. Venditti; Relevance of transplantable animal tumor systems to the Selection of new agents for clinical trial in pharmacological basis of cancer chemotherapy. The University of Texas ed. Williams and Wilkins, publ. 1975, Baltimore USA).
Cette étude a été réalisée sur 1, 2 ou 3 tumeurs murines expérimentales selon le schéma suivant :
Les produits en solution dans l'eau ou en suspension dans du Klucel sont administrés par voie intrapéritonéale 24 heures après la greffe des cellules tumorales (10 animaux par série), soit en injection unique (J1), soit pendant 9 jours consécutifs (Ji-9). Les morts sont relevés chaque jour à la même heure. La comparaison du temps médian de survie des souris témoins (C) et des souris traitées (T) permet d'apprécier l'activité antitumorale du produit. On adopte comme critère d'activité minimale la valeur de T/C supérieure ou égale à 125 % conformément aux critères établis par GERAN et par l'O.M.S. (Réf. GERAN R.I., GREENBERG N.H., MACDONALD M.M., SCHUMACHER A.M. and ABBOTT B.J. Protocols for screening chemical agents and natural products against animal tumors and other biological systems. Cancer Chemother. Rep. Part 3, 3, 1-103 (1972)).
Lorsque le composé est actif sur plusieurs tumeurs, son administration par d'autres voies que la voie intrapéritonéale (i.p.) est envisagée : orale (p.o) et intraveineuse (i.v). Les résultats des essais effectués à l'aide du composé 63 sont rassemblés dans le tableau IV ci-après.
Les résultats des essais effectués à l'aide des composés de l'invention n° 57 et 59 sont rassemblés dans le tableau IV Bis ci-après.
Dans les tableaux IV et IV Bis, P représentent la variation de poids entre J1 et J5 des animaux traités; lorsque P est supérieure à environ 4 g, cela signifie que la dose à laquelle le composé a été testé est toxique.

[10] = Solubility in water (statement); format: physicochemical

Compound | IC50 [7] | DLo [8] | Animaux survivants/ animaux traités ([9]; 5 mg/kg) | T/C ([9]; 5 mg/kg) | ΔP (J5-J1) ([9]; 5 mg/kg) | Animaux survivants/ animaux traités ([9]; 2,5 mg/kg) | T/C ([9]; 2,5 mg/kg) | ΔP (J5-J1) ([9]; 2,5 mg/kg) | activité antitumorale comparée [9] | solubilité dans l'eau [10] | other results
O=C1C(N2CC2)=C(N2CC2)C(=O)c2ncncc21 [bis(aziridinyl-1)-6,7 quinazolinedione-5,8] |  |  |  |  |  |  |  |  |  |  | cytotoxicité in vitro sur les cellules L1210 [1]: cytotoxique; activité antitumorale in vivo sur la leucémie murine P388 [2]: une certaine activité antitumorale; activité antitumorale in vivo sur la leucémie L1210 [3]: ne présente pas d'activité antitumorale significative; activité antitumorale in vivo sur le sarcome 180 [4]: ne présente pas d'activité antitumorale significative; activité in vivo sur le mélanocarcinome B16 [5]: très faible activité; activité par voie orale [6]: n'est pas actif
CN(CCCNc1ncnc2c1C(=O)C(N1CC1)=C(N1CC1)C2=O)CCCNc1ncnc2c1C(=O)C(N1CC1)=C(N1CC1)C2=O [compound 57] | 0.0048 µM | ~2,5 mg/kg | 10/10 | 168% | -4,2 g | 10/10 | 150% | -1,8 g | nettement plus actifs | insolubles dans l'eau | Animaux survivants/ animaux traités ([9]; 1,25 mg/kg): 06/06; T/C ([9]; 1,25 mg/kg): 137%; ΔP (J5-J1) ([9]; 1,25 mg/kg): -1,0 g
O=C1C(N2CC2)=C(N2CC2)C(=O)c2c(NCCOCCOCCNc3ncnc4c3C(=O)C(N3CC3)=C(N3CC3)C4=O)ncnc21 [compound 59] | 0.018 µM | ~10 mg/kg | 10/10 | 133% | -1,1 g | 10/10 | 115% | -0,5 g | nettement plus actifs | insolubles dans l'eau | Animaux survivants/ animaux traités ([9]; 10 mg/kg): 10/10; T/C ([9]; 10 mg/kg): 135%; ΔP (J5-J1) ([9]; 10 mg/kg): -1,8 g; Animaux survivants/ animaux traités ([9]; 15 mg/kg): 07/10; T/C ([9]; 15 mg/kg): 145%; ΔP (J5-J1) ([9]; 15 mg/kg): -4,1 g
O=C1C(N2CC2)=C(N2CC2)C(=O)c2c(NCCCCCCCNc3ncnc4c3C(=O)C(N3CC3)=C(N3CC3)C4=O)ncnc21 [compound 54] | 0.0037 µM |  |  |  |  |  |  |  |  |  | 
COC1=CC(=O)c2ncnc(NCCCN3CCC(C4CCN(CCCNc5ncnc6c5C(=O)C(OC)=CC6=O)CC4)CC3)c2C1=O [compound 70] |  |  |  |  |  |  |  |  |  |  | IC50 ([7]; L 1210 cells, 48 heures après traitement): 1.3 µM
